Assay results from US20060241100A1, “Acylaminobicyclic heteroaromatic compounds and uses thereof” (Pfizer Inc, priority 2005, published 2006).

Tested on: CB-1 receptor
Test: CB-1 receptor binding ([3H]SR141716A displacement)
Conditions: rat or human CB-1 protocol not specified; kind of value (Ki/IC50) not stated
Method: Compounds having an activity <20 nM are generally tested in the CB-1 GTPγ [^35S] Binding Assay and the CB-2 binding assay described below in the Biological Binding Assays section. Selected compounds are then tested in vivo using one or more of the functional assays described in the Biological Functional Assays section below. The compounds in the Examples above provided a range of CB-1 receptor binding activities from 0.1 to 500 nM.
The following assays were designed to detect compounds that inhibit the binding of [^3H] SR141716A (selective radiolabeled CB-1 ligand) and [^3H]5-(1,1-dimethylheptyl)-2-[5-hydroxy-2-(3-hydroxypropyl)-cyclohexyl]-phenol; radiolabeled CB-1/CB-2 ligand) to their respective receptors. […]
The test compounds were diluted in drug buffer (0.5% BSA, 10% DMSO and TME) and then 25 μl were added to a deep well polypropylene plate. […] In the morning the filters were counted on a Wallac Betaplate™ counter (available from PerkinElmer Life Sciences™, Boston, Mass.). […]
The test compounds were diluted in drug buffer (0.5% BSA, 10% DMSO and TME) and then 25 μl were added to a deep well polypropylene plate. […] In the morning the filters were counted on a Wallac Betaplate™ counter (available from PerkinElmer Life Sciences™, Boston, Mass.).

CB-1 receptor binding activity: 47 nM
SMILES: CNC1CCCOc2c1nn(-c1ccccc1Cl)c2-c1ccc(Cl)cc1 (stereo not shown) [Example 1C]
